Results reported in US20080171783A1, “COMPOSITIONS AND METHODS FOR TREATING HYPERPROLIFERATIVE DISEASE” (Migenix Inc., priority 2006, published 2008).
Read-outs that look alike come from different tables or passages of the source.

Legend:
HT29 = assay: cells; conditions: for Percentage of Cell Control: HT29, single dose 10 μM, four days
Procedure: (§1) Compounds were solubilized at […] in DMSO and were stored at −20° C. Test compounds were initially tested at a single concentration of 10 μM and a subset of test compounds were further tested in selected cell lines using a six concentration dose response curve.
(§2) Cell Preparation Cancer cell lines were passaged in T-75 flasks prior to use in the assay in cell culture medium recommended by the ATCC (American Type Culture Collection; Table 6). On the day preceding the assay, the cells were split 1:2 to assure they were in an exponential growth phase at the time of compound treatment. Total cell and viability quantification was performed using a hemocytometer and Trypan Blue dye exclusion. […] The cells were resuspended at the appropriate cell per mL (Table 6) in tissue culture medium and added to the microtitre plates in a volume of 100 μL. Colon cell lines were incubated overnight at 37° C./5% CO2 to allow for cell adherence to the plates.
(§3) Plate Format: Each plate contains cell control wells (cells only), drug calorimetric control wells (drug only) as well as experimental wells (drug plus cells). Samples were tested in triplicate at a concentration of 10 μM and five half-logarithmic dilutions.
(§4) Cell Viability by XTT: Following incubation at 37° C. in a 5% CO2 incubator for four days, the test plates were stained with the tetrazolium dye XTT (2,3-bis(2-methoxy-4-nitro-5-sulfophenyl)-5-[(phenylamino)carbonyl]-2H-tetrazolium hydroxide). XTT-tetrazolium was metabolized by the mitochondrial enzymes of metabolically active cells to a soluble formazan product. XTT solution was prepared daily as a stock of 1 mg/mL in RPMI1640. Phenazine methosulfate (PMS) solution was prepared at 0.15 mg/mL in phosphate buffered saline (PBS) and stored in the dark at −20° C. XTT/PMS stock was prepared immediately before use by adding 40 μL of PMS per mL of XTT solution. Fifty (50) microlitres of XTT/PMS was added to each well of the plate and the plate was reincubated for 4 hours at 37° C. Plates were sealed with adhesive plate sealers and shaken gently or inverted several times to mix the soluble formazan product and the plate was read spectrophotometrically at 450/650 nm with a Molecular Devices Vmax plate reader. […] An Average Response Factor (ARF) was calculated for each compound by averaging the ten Percentage of Control values for the cell lines. […] Deviations below 100% control indicate activity. The concentration of each tested compound is 10 μM.

[1] = system: 5 Leukemia and 5 Colon Cancer Cell Lines; assay: Cell viability by XTT, cell line panel; format: cell-based; conditions: for Range (Percentage of Control over the same 10 cell lines): lowest to highest of the ten cell lines
Summary of the method: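 Leukemia and colon cancer lines in exponential growth were exposed to compounds for four days at 37 °C/5% CO2, with colon lines allowed overnight adherence beforehand. Viability read by XTT/PMS reduction (4 h) at 450/650 nm; percent of control at 10 μM averaged over ten lines as ARF.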

HCT-15 = assay: Cell viability by XTT; format: cell-based; conditions: HCT-15, single dose 10 μM, four days
Procedure: as §1, §2, §3, §4

HL-60 = assay: Cell viability by XTT; format: cell-based; conditions: HL-60, single dose 10 μM, four days
Procedure: as §1, §2, §3, §4

Calf polymerase alpha = molecular target: T1, Calf polymerase alpha (Bos taurus, UniProt A0AAA9TD94); assay: Calf polymerase alpha inhibition (Replizyme kit); format: biochemical; conditions: at 10 μM, single point screening
T1 construct: purchased Replizyme Ltd (Heslington, York, UK)
T1 sequence (A0AAA9TD94 1-1441): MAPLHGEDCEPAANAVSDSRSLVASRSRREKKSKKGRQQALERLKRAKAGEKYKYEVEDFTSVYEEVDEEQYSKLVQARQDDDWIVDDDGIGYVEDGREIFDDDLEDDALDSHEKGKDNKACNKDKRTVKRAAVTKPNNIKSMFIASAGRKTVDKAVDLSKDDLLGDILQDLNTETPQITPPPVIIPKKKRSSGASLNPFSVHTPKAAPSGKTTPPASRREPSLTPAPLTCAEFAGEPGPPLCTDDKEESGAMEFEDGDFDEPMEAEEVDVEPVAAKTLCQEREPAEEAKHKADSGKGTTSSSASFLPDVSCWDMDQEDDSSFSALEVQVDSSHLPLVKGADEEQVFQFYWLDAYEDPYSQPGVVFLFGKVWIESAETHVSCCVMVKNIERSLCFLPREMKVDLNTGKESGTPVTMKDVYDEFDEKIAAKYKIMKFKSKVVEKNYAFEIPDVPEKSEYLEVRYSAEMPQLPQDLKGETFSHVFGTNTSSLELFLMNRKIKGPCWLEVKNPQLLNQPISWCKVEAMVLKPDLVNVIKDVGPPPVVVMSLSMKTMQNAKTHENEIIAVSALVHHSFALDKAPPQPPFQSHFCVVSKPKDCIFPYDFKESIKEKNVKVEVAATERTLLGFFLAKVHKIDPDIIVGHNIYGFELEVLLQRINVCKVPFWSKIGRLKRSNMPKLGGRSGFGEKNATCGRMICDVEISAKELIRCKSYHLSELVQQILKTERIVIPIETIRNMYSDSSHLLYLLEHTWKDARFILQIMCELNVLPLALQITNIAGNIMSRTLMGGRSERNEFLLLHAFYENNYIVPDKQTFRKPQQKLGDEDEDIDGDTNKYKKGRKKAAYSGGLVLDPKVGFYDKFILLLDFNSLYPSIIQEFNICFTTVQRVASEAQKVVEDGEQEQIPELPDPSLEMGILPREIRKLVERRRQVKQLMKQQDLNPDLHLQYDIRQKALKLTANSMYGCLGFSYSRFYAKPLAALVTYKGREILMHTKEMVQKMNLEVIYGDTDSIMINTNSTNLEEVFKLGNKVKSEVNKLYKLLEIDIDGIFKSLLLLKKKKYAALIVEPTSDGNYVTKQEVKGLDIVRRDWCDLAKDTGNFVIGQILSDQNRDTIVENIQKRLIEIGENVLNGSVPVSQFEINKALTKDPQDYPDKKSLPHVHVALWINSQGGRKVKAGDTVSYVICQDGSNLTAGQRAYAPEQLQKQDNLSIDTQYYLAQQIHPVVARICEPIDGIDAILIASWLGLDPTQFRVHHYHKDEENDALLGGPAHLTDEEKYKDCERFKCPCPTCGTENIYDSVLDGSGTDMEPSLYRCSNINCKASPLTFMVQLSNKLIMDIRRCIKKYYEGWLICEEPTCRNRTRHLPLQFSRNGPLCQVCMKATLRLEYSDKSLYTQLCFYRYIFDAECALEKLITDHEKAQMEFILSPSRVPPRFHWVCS
Procedure: Calf polymerase alpha and human polymerase alpha investigations were performed with a kit available from Replizyme Ltd (Heslington, York, UK).

Jurkat = assay: Cell viability by XTT; conditions: for Percentage of Cell Control: single dose 10 μM, four days
Procedure: as §1, §2, §3, §4

Caco-2 = assay: Cell viability by XTT; conditions: for Percentage of Cell Control: Caco-2, single dose 10 μM, four days
Procedure: as §1, §2, §3, §4

THP-1 = assay: Cell viability by XTT; conditions: for Percentage of Cell Control: THP-1, single dose 10 μM, four days
Procedure: as §1, §2, §3, §4

SMILES | Percentage of Cell Control (HT29) [%] | CC50 (HT29; Homo sapiens, HT-29, read-out: Activity (TC50)) [µM] | Range (Percentage of Control over the same 10 cell lines) ([1]; 10 μM) [%] | viability at 10 µM ([1]; average of the ten Percentage of Control values, read-out: ARF (Average Response Factor, Average Percentage of Control)) [%] | Percentage of Cell Control (HCT-15) [%] | Percentage of Cell Control (HL-60) [%] | inhibition at 10 µM (Calf polymerase alpha) [%] | CC50 (Jurkat; Homo sapiens, read-out: Activity (TC50)) [µM] | Percentage of Cell Control (Jurkat) [%] | Percentage of Cell Control (Caco-2) [%] | CC50 (Caco-2; Homo sapiens, Caco-2, read-out: Activity (TC50)) [µM] | CC50 (THP-1; Homo sapiens, THP-1, read-out: Activity (TC50)) [µM] | Percentage of Cell Control (THP-1) [%] | ARF (Average Response Factor, Average Percentage of Control) ([1]; 10 μM, average of the ten Percentage of Control values) [%] | % Inhibition (Calf polymerase alpha) [%] | CC50 (Jurkat; read-out: Activity (TC50), six concentration dose response, Table 9) [µM] | CC50 (Caco-2; read-out: Activity (TC50), Caco-2, six concentration dose response, Table 9) [µM] | CC50 (THP-1; read-out: Activity (TC50), THP-1, six concentration dose response, Table 9) [µM]
NCCCC[C@H](NC(=O)OCC1c2ccccc2-c2ccccc21)C(=O)Nc1ccc(OCc2ccccc2)c(Cl)c1 [Compound 210, (S)-[5-AMINO-1-(4-BENZYLOXY-3-CHLORO-PHENYLCARBAMOYL)-PENTYL]-CARBAMIC ACID 9H-FLUOREN-9-YLMETHYL ESTER] | 0 | 9.8 | 0 to 94.0 | 41.1 | 71.8 | 0.4 | 104 | 5.4 | 9.3 | 2.4 | 10 | 7.7 | 0 |  |  |  |  | 
Cc1ccc(NC(=O)[C@H](CCCCN)NCc2ccc(NC(=O)Nc3ccncc3)cc2)cc1 [Compound 262, (S)-6-AMINO-2-[4-(3-PYRIDIN-4-YL-UREIDO)-BENZYLAMINO]-HEXANOIC ACID P-TOLYLAMIDE] | 63.8 |  | 3.1 to 121.1 |  | 75 | 53.1 |  |  | 3.1 | 21.6 |  |  | 49.4 | 69.4 | 102 | 5.5 | 8.7 | 7.9
